Results from the supplement of paper PMC10307832.

Legend:
Test in all cases: relative viability (nuclei count vs DMSO), 5 days (fraction); higher = more cells survive
HCC-827 = test system: HCC-827
In short: (§1)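 Each reported value is a median over duplicate plates. It expresses relative viability: treated-well nuclei count divided by vehicle-well nuclei count. Lung cancer cell lines in 1536-well plates were dosed by pin tool a day after seeding, alone with one drug or with a fixed anchor-drug dose plus five library-drug doses (not always all listed) in √10 steps, and nuclei were counted after 5 days.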

HARA = test system: HARA
In short: as §1

NCI-H1734 = test system: NCI-H1734
In short: as §1

NCI-H647 = test system: NCI-H647
In short: as §1

NCI-H1437 = test system: NCI-H1437
In short: as §1

NCI-H2405 = test system: NCI-H2405
In short: as §1

NCI-H1355 = test system: NCI-H1355
In short: as §1

NCI-H522 = test system: NCI-H522
In short: as §1

SK-MES-1 = test system: SK-MES-1
In short: as §1

HCC-366 = test system: HCC-366
In short: as §1

NCI-H2170 = test system: NCI-H2170
In short: as §1

EKVX = test system: EKVX
In short: as §1

NCI-H1993 = test system: NCI-H1993
In short: as §1

NCI-H1395 = test system: NCI-H1395
In short: as §1

NCI-H2342 = test system: NCI-H2342
In short: as §1

LOU-NH91 = test system: LOU-NH91
In short: as §1

NCI-H2087 = test system: NCI-H2087
In short: as §1

SK-LU-1 = test system: SK-LU-1
In short: as §1

NCI-H661 = test system: NCI-H661
In short: as §1

NCI-H1792 = test system: NCI-H1792
In short: as §1

NCI-H2009 = test system: NCI-H2009
In short: as §1

BEN = test system: BEN
In short: as §1

COc1cc2nccc(Oc3ccc(NC(=O)Nc4cc(C)on4)c(Cl)c3)c2cc1OC [Tivozanib] + Nc1ncn([C@H]2C[C@H](O)[C@@H](CO)O2)c(=O)n1 [Decitabine] (partner 2 µM)
relative viability (HCC-827; first compound 0.005 µM): 0.264 | relative viability (HCC-827; first compound 0.01581 µM): 0.345 | relative viability (HCC-827; first compound 0.05 µM): 0.311 | relative viability (HCC-827; first compound 0.1581 µM): 0.289 | relative viability (HCC-827; first compound 0.5 µM): 0.268 | relative viability (HARA; first compound 0.005 µM): 0.469 | relative viability (HARA; first compound 0.01581 µM): 0.571 | relative viability (HARA; first compound 0.05 µM): 0.59 | relative viability (HARA; first compound 0.1581 µM): 0.652 | relative viability (HARA; first compound 0.5 µM): 0.793 | relative viability (NCI-H1734; first compound 0.005 µM): 0.493 | relative viability (NCI-H1734; first compound 0.01581 µM): 0.428 | relative viability (NCI-H1734; first compound 0.05 µM): 0.513 | relative viability (NCI-H1734; first compound 0.1581 µM): 0.431 | relative viability (NCI-H1734; first compound 0.5 µM): 0.5 | relative viability (NCI-H647; first compound 0.005 µM): 0.361 | relative viability (NCI-H647; first compound 0.01581 µM): 0.362 | relative viability (NCI-H647; first compound 0.05 µM): 0.302 | relative viability (NCI-H647; first compound 0.1581 µM): 0.315 | relative viability (NCI-H647; first compound 0.5 µM): 0.394 | relative viability (NCI-H1437; first compound 0.005 µM): 0.629 | relative viability (NCI-H1437; first compound 0.01581 µM): 0.582 | relative viability (NCI-H1437; first compound 0.05 µM): 0.594 | relative viability (NCI-H1437; first compound 0.1581 µM): 0.653 | relative viability (NCI-H1437; first compound 0.5 µM): 0.564 | relative viability (NCI-H2405; first compound 0.005 µM): 0.676 | relative viability (NCI-H2405; first compound 0.01581 µM): 0.771 | relative viability (NCI-H2405; first compound 0.05 µM): 0.756 | relative viability (NCI-H2405; first compound 0.1581 µM): 0.706 | relative viability (NCI-H2405; first compound 0.5 µM): 0.591 | relative viability (NCI-H1355; first compound 0.005 µM): 0.318 | relative viability (NCI-H1355; first compound 0.01581 µM): 0.314 | relative viability (NCI-H1355; first compound 0.05 µM): 0.334 | relative viability (NCI-H1355; first compound 0.1581 µM): 0.333 | relative viability (NCI-H1355; first compound 0.5 µM): 0.363 | relative viability (NCI-H522; first compound 0.005 µM): 0.702 | relative viability (NCI-H522; first compound 0.01581 µM): 0.68 | relative viability (NCI-H522; first compound 0.05 µM): 0.696 | relative viability (NCI-H522; first compound 0.1581 µM): 0.665 | relative viability (NCI-H522; first compound 0.5 µM): 0.577 | relative viability (SK-MES-1; first compound 0.005 µM): 0.363 | relative viability (SK-MES-1; first compound 0.01581 µM): 0.363 | relative viability (SK-MES-1; first compound 0.05 µM): 0.371 | relative viability (SK-MES-1; first compound 0.1581 µM): 0.393 | relative viability (SK-MES-1; first compound 0.5 µM): 0.435 | relative viability (HCC-366; first compound 0.005 µM): 0.334 | relative viability (HCC-366; first compound 0.01581 µM): 0.306 | relative viability (HCC-366; first compound 0.05 µM): 0.346 | relative viability (HCC-366; first compound 0.1581 µM): 0.349 | relative viability (HCC-366; first compound 0.5 µM): 0.378 | relative viability (NCI-H2170; first compound 0.005 µM): 0.463 | relative viability (NCI-H2170; first compound 0.01581 µM): 0.495 | relative viability (NCI-H2170; first compound 0.05 µM): 0.489 | relative viability (NCI-H2170; first compound 0.5 µM): 0.458 | relative viability (EKVX; first compound 0.005 µM): 0.308 | relative viability (EKVX; first compound 0.01581 µM): 0.353 | relative viability (EKVX; first compound 0.05 µM): 0.386 | relative viability (EKVX; first compound 0.1581 µM): 0.363 | relative viability (EKVX; first compound 0.5 µM): 0.313 | relative viability (NCI-H1993; first compound 0.005 µM): 0.658 | relative viability (NCI-H1993; first compound 0.01581 µM): 0.595 | relative viability (NCI-H1993; first compound 0.05 µM): 0.581 | relative viability (NCI-H1993; first compound 0.1581 µM): 0.469 | relative viability (NCI-H1993; first compound 0.5 µM): 0.592 | relative viability (NCI-H1395; first compound 0.005 µM): 0.671 | relative viability (NCI-H1395; first compound 0.01581 µM): 0.672 | relative viability (NCI-H1395; first compound 0.05 µM): 0.732 | relative viability (NCI-H1395; first compound 0.1581 µM): 0.713 | relative viability (NCI-H1395; first compound 0.5 µM): 0.617 | relative viability (NCI-H2342; first compound 0.005 µM): 0.678 | relative viability (NCI-H2342; first compound 0.01581 µM): 0.646 | relative viability (NCI-H2342; first compound 0.05 µM): 0.789 | relative viability (NCI-H2342; first compound 0.5 µM): 0.712 | relative viability (LOU-NH91; first compound 0.005 µM): 0.772 | relative viability (LOU-NH91; first compound 0.01581 µM): 0.8 | relative viability (LOU-NH91; first compound 0.05 µM): 0.808 | relative viability (LOU-NH91; first compound 0.1581 µM): 0.752 | relative viability (LOU-NH91; first compound 0.5 µM): 0.796 | relative viability (NCI-H2087; first compound 0.005 µM): 0.275 | relative viability (NCI-H2087; first compound 0.01581 µM): 0.249 | relative viability (NCI-H2087; first compound 0.05 µM): 0.352 | relative viability (NCI-H2087; first compound 0.1581 µM): 0.254 | relative viability (NCI-H2087; first compound 0.5 µM): 0.348 | relative viability (SK-LU-1; first compound 0.005 µM): 0.647 | relative viability (SK-LU-1; first compound 0.01581 µM): 0.643 | relative viability (SK-LU-1; first compound 0.05 µM): 0.644 | relative viability (SK-LU-1; first compound 0.1581 µM): 0.392 | relative viability (SK-LU-1; first compound 0.5 µM): 0.618 | relative viability (NCI-H661; first compound 0.005 µM): 0.527 | relative viability (NCI-H661; first compound 0.01581 µM): 0.557 | relative viability (NCI-H661; first compound 0.05 µM): 0.592 | relative viability (NCI-H661; first compound 0.1581 µM): 0.514 | relative viability (NCI-H661; first compound 0.5 µM): 0.552 | relative viability (NCI-H1792; first compound 0.005 µM): 0.514 | relative viability (NCI-H1792; first compound 0.01581 µM): 0.538 | relative viability (NCI-H1792; first compound 0.05 µM): 0.574 | relative viability (NCI-H1792; first compound 0.5 µM): 0.499 | relative viability (NCI-H2009; first compound 0.005 µM): 0.388 | relative viability (NCI-H2009; first compound 0.01581 µM): 0.329 | relative viability (NCI-H2009; first compound 0.05 µM): 0.382 | relative viability (NCI-H2009; first compound 0.1581 µM): 0.369 | relative viability (NCI-H2009; first compound 0.5 µM): 0.368 | relative viability (BEN; first compound 0.005 µM): 0.725 | relative viability (BEN; first compound 0.01581 µM): 0.703 | relative viability (BEN; first compound 0.05 µM): 0.761 | relative viability (BEN; first compound 0.1581 µM): 0.471 | relative viability (BEN; first compound 0.5 µM): 0.563
